Structures are written as SMILES. Calls of active or inactive are those of the source. Bounds are passed on as bounds.

Among the data in ChEMBL document CHEMBL1201862, “PubChem BioAssay data set” (2004) are IC50, AC50 and EC50 values, retold here.

Test [1] has as its target Glutathione-S-transferase (Schistosoma japonicum, UniProt Q26513). Briefly: biotin-GST/anti-GST TR-FRET signal inhibitors, dose response, artefact control for Vif-APOBEC3G degradation inhibitor project, biochemical (AID 1117362). The test is classed as functional.
Test [2] is described as follows: yeast RAM network inhibitors, dose response, S. cerevisiae (AID 1307). The class given is functional.
Test [3] has as its target Diphosphomevalonate decarboxylase (Streptococcus pneumoniae serotype 2 (strain D39 / NCTC 7466), UniProt Q9FD53). Nature of the test: S. pneumoniae DPM-DC inhibition retest, confirmation, biochemical, cuvette format, coupled NADH fluorescence (AID 1028). The class given is functional.
The nature of test [4]: P. falciparum Dd2 growth inhibitors, dose response, SYBR Green, cherry-picked samples (AID 1159567). The test is classed as functional, cell-based.
Test [5] is described as follows: P. falciparum Dd2 growth inhibitors, dose response, SYBR Green, dry powder samples (AID 1159566).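 Also: potency for growth inhibition with lower SYBR green DNA signal.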 The class given is functional, cell-based.
A short description of test [6]: P. falciparum 3D7-ScDHODH growth inhibitors, dose response, SYBR Green, dry powder samples (AID 1159570).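 Also: parasite growth measured after 72 hours of compound exposure.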 The class given is functional, cell-based.
Test [7] is described as follows: P. falciparum ATP4 D1247Y mutant growth inhibitors, dose response, NITD609-resistant line, SYBR Green, dry powder (AID 1159571).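 Also: parasites synchronized at ring stage by sorbitol before testing.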 The test is classed as functional, cell-based.
A short description of test [8]: HepG2 cell cytotoxicity, dose response, cytotoxicity control, plate reader, dry powder samples (AID 1159569).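 Also: inhibitor potency with signal falling toward the positive control level.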 The class given is functional, cell-based.
A short description of test [9]: RKO cell viability reduction, dose response, CellTiter-Glo luminescence (AID 1117322). The test is classed as functional. A general note: Cellular ATP, detected with luciferase, serves as a proxy for viable cell number.
The nature of test [10]: half-maximal inhibitory concentration for glucagon-like peptide-1 release, STC-1 cell line, dose-response (AID 1117345). The class given is functional, cell-based.
A short description of test [11]: Glucagon-like peptide 1 release potency, NCI-H716 cell line, dose-response, half-maximal inhibitory concentration (AID 1117344). The test is classed as functional, cell-based.
Test [12] can be described thus: CellTiter-Glo luminescent dose response of DLD-1 viability loss (AID 1117352). The class given is functional.
Test [13] is described as follows: SNU-C1 cell viability reduction, dose response, CellTiter-Glo luminescence (AID 1117323). The class given is functional, cell-based.
A short description of test [14]: HeLa 4N DNA content increase, dose response, cell-based, IC50 (AID 1117351). The test is classed as functional.
The nature of test [15]: cytotoxicity toward Colo320 cells – cell-based, CellTiter-Glo luminescence, IC50, dose response (AID 1117334). The class given is functional. The following applies: COLO 320.
Test [16] can be described thus: cytotoxicity toward HT-29 cells – cell-based, CellTiter-Glo luminescence, IC50, dose response (AID 1117330). The test is classed as functional.
Test [17] is described as follows: Concentration-dependent survival of SW480 colon cancer line, luminescence detection with CellTiter-Glo, half-maximal inhibitory concentration (AID 1117338). The test is classed as functional.
Test [18] is described as follows: cytotoxicity toward HCT116 cells – cell-based, CellTiter-Glo luminescence, IC50, dose response (AID 1117332). The following applies: HCT-116. The test is classed as functional.
Test [19] can be described thus: HCT116 cell viability decrease, GSK3B pretreatment – CellTiter-Glo, IC50, dose response (AID 1117339). The class given is functional. The following applies: HCT-116.
Test [20] can be described thus: HeLa 2N DNA content increase, dose response, cell-based, IC50 (AID 1117349). The test is classed as functional.
The target of test [21] is Sphingosine 1-phosphate receptor 2 (Homo sapiens, UniProt O95136). Briefly: Dose Response Cell Based Assay for Agonists of the S1P2 Receptor. [Related pubchem assays: 729, 736, 843 ]. The class given is functional.
Sphingosine 1-phosphate receptor 2, sequence (O95136 whole entry): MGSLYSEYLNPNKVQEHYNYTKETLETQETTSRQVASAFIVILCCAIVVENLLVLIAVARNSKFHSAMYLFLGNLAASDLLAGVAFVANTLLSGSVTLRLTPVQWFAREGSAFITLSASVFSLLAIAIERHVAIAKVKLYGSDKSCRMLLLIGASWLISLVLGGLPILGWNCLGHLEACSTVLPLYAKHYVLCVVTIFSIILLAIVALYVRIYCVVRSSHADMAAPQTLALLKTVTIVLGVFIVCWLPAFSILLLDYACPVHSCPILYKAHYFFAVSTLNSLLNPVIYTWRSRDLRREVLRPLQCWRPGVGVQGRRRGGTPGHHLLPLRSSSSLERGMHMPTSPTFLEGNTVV
The target of test [22] is T1, SUMO-activating enzyme (Homo sapiens, UniProt Q9UBT2). Nature of the test: inhibitors of in vitro SUMOylation cascade, primary screen, biochemical, HTRF, uHTS (AID 2006). The test is classed as protein-complex assay. (In general: TR-FRET usually uses a lanthanide donor and a delayed reading to cut background.)
T1 sequence (Q9UBE0 whole entry, the tested form may be a part): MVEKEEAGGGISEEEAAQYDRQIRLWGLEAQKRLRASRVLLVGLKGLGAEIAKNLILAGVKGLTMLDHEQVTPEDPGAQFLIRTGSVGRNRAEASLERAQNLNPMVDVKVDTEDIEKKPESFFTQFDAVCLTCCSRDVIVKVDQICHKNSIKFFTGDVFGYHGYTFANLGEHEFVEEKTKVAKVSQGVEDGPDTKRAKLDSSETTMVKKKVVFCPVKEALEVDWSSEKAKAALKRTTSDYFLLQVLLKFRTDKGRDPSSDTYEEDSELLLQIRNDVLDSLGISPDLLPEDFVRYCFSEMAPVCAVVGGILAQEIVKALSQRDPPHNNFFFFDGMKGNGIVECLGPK
T1 sequence (Q9UBT2 whole entry, the tested form may be a part): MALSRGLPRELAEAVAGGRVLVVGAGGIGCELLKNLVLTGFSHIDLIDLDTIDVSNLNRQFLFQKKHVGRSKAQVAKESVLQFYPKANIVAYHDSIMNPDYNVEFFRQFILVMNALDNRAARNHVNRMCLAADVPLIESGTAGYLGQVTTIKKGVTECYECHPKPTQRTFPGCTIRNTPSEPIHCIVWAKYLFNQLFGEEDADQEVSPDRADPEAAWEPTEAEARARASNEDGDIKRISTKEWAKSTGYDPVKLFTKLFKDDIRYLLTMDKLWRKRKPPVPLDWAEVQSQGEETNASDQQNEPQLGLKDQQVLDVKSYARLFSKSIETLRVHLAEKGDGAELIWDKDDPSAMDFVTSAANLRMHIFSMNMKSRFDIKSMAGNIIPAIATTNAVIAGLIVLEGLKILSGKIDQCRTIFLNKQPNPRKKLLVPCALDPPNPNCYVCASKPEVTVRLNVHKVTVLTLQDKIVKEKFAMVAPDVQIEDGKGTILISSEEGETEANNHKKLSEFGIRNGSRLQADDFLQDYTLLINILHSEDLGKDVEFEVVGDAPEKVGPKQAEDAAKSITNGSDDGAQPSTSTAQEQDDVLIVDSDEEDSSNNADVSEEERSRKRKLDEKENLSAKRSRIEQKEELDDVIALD
The target in test [23] is E3 ubiquitin-protein ligase UHRF1 (Homo sapiens, UniProt Q96T88). Nature of the test: Counterscreen for inhibitors of 5-meCpG-binding domain protein 2 (MBD2): TRFRET-based biochemical high throughput dose response assay to identify inhibitors of binding of ubiquitin-like with PHD and ring finger domains 1 (UHRF1) to methylated oligonucleotide. Background: The purpose of a counterscreen is to sort out artefacts and off-target activity.
E3 ubiquitin-protein ligase UHRF1, sequence (Q96T88 whole entry, the tested form may be a part): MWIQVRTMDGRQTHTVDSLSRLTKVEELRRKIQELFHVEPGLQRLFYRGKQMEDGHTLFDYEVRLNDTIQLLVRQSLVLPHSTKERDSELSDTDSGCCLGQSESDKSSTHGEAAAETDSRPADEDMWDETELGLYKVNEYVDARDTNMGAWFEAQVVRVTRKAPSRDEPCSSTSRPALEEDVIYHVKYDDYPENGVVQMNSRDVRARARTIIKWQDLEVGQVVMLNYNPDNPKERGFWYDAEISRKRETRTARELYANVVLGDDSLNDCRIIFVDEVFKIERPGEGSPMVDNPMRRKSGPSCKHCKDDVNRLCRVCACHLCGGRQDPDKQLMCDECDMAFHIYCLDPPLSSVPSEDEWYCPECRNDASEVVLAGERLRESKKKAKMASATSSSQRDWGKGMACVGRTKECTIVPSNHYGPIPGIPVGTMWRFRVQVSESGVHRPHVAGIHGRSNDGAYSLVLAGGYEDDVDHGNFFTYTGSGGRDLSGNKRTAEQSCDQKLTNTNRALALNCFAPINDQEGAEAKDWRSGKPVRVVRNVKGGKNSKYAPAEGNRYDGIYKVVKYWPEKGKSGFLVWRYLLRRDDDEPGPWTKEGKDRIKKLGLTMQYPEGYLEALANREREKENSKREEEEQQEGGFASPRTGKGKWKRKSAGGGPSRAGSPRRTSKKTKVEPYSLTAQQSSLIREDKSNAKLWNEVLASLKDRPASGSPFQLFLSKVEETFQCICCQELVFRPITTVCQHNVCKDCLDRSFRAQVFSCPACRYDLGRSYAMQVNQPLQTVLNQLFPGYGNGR

Another test deals with T2, Aminopeptidase N (Plasmodium falciparum FcB1/Columbia, UniProt O96935).
T2 sequence (O96935 whole entry): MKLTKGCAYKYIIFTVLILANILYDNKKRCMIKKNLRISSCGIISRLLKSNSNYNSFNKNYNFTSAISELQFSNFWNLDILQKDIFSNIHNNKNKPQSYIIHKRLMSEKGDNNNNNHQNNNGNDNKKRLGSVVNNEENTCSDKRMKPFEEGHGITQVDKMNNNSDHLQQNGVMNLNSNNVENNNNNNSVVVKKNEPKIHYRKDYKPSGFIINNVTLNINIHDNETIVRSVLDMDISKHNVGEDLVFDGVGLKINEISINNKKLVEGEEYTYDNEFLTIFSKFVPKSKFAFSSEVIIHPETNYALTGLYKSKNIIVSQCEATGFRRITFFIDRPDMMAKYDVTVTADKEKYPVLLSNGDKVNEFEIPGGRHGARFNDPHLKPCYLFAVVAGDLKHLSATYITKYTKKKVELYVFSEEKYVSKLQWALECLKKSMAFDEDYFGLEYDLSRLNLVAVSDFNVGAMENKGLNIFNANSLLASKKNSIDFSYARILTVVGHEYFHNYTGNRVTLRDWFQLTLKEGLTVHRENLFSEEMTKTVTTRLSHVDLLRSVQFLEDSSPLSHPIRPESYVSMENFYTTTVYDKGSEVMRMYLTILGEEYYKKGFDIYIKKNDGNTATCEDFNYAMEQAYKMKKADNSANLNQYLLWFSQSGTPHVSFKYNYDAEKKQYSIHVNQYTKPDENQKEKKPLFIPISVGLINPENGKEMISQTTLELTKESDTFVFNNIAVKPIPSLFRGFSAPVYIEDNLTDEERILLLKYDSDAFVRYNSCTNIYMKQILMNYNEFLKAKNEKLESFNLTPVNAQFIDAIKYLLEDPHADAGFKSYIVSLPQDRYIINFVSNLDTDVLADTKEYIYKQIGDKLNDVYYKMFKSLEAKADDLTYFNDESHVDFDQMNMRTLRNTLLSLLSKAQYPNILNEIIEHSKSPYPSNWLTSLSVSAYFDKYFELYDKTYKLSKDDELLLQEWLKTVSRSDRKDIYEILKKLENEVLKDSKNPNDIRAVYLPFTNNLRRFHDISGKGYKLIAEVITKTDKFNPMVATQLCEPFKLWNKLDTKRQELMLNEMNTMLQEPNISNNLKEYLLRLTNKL
Nature of the test: P. falciparum M1AAP inhibitors, biochemical, fluorogenic H-Leu-NHMec substrate, 1536-well (AID 1445). Details: species or system Plasmodium falciparum 3D7, 3D7.

Test [24] has as its target T1, SUMO-activating enzyme. Nature of the test: SUMOylation inhibitor hit validation, confirmation, SUMOylation inhibitor project, biochemical, AlphaScreen (AID 2018). The class given is functional.
In test [25] the target is 5-hydroxytryptamine receptor 1A (Homo sapiens, UniProt P08908). The class given is functional.
5-hydroxytryptamine receptor 1A, sequence (P08908 whole entry): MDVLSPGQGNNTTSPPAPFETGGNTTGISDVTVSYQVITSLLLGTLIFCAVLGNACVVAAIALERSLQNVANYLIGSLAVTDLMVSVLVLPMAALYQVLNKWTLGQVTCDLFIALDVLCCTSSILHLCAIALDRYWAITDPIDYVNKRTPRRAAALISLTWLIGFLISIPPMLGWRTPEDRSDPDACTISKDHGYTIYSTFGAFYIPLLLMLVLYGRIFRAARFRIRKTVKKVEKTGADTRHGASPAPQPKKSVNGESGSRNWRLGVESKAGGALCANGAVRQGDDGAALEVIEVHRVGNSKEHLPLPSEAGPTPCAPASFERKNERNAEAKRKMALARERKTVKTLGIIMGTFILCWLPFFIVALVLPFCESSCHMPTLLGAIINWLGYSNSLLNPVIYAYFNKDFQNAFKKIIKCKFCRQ

Diphosphomevalonate decarboxylase, sequence (Q9FD53 whole entry): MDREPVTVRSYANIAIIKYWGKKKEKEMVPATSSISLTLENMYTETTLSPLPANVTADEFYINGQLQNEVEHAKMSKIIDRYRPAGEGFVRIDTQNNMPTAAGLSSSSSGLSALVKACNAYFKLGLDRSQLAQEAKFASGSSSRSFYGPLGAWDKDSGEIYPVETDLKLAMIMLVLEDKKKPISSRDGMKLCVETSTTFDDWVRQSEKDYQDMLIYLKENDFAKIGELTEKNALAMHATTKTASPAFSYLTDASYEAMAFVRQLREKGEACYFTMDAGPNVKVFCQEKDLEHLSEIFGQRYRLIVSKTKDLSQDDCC
Glutathione-S-transferase, sequence (Q26513 whole entry): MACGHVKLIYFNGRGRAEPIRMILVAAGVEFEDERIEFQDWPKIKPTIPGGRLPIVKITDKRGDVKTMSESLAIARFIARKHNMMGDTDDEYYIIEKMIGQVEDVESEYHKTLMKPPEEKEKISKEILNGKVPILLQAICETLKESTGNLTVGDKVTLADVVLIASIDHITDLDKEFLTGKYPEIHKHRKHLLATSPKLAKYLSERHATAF

On to `CC1CCCCN1Cc1ccc(N(C)C)cc1` (stereo unspecified), for which the concentration for half-maximal inhibition (IC50) – broadly, the midpoint of a concentration-inhibition curve – in test [1] is > 100 µM (active).

As to `CN1/C(=C\C=C2/C(=O)Oc3ccccc3C2=O)C(C)(C)c2ccccc21`, the concentration for half-maximal inhibition (IC50) in [2] was 178 µM (active).

`O=C(c1ccc(-n2sc3ccccc3c2=O)cc1)N1CCOCC1`: the IC50 in [3] was 13.1 µM (active).

Consider `COc1cccc(C#Cc2cnc3c(c2)C(=O)N([C@H](C)CO)C[C@H](C)[C@@H](CN(C)C(=O)C2CCCCC2)O3)c1`, for which the AC50 – broadly, the concentration giving half of the maximal activity seen – in test [4] was 0.722 µM (active); in [5] it was 0.643 µM (active); in test [6] it was 1.58 µM (active); in test [7] it was 0.803 µM (active); in test [8], 29.4 µM (active).

Take `COC(=O)Nc1nc2cc(Sc3ccccc3)ccc2[nH]1` [FENBENDAZOLE]: the IC50 is 0.001 µM (active) in test [9]; > 20 µM (inactive) in [10]; > 40 µM (inactive) in [11]; 0.0673 µM (active) in test [12]; > 20 µM (inactive) in test [13]; 0.195 µM (active) in test [14]. In addition, the IC50 in [15] was > 20 µM (inactive); in test [16] it was > 20 µM (inactive); in test [17] it was > 20 µM (inactive); in test [18], 0.001 µM (active); in test [19], 0.003 µM (active); in [20], 0.204 µM (active).

Regarding `O=c1c(-c2nc3ccccc3s2)cccn1Cc1ccc(Cl)c(Cl)c1`, the half-maximal effective concentration (EC50) (as a rule, the concentration giving half of the maximal effect) in test [21] is 2.18 µM (active).

For the compound `CCCN(C(=O)c1cc2c(s1)CCC2)c1c(N)n(Cc2ccccc2)c(=O)[nH]c1=O`, the 50% inhibitory concentration (IC50) at SUMO-activating enzyme [22] is 37.7 µM (active); in test [23] it was > 43.8 µM (inactive); at Aminopeptidase N, 77.2 µM (active); on SUMO-activating enzyme [24], 16.7 µM (active).

In the case of `CN1CCN(/C(=N\O)c2nonc2N)CC1`, the 50% effective concentration (EC50) in test [25] is > 50 µM (not active).
